Results taken from patent US20090306012A1, “THERAPEUTIC PROTOCOLS” (priority 2001, published 2009).
Read-outs that look alike come from different tables or passages of the source.

What was measured:
[1] = test system: neutrophils; test: Phase I clinical trial of 5-fluorouracil + HA (Hyfive) in metastatic colorectal cancer: toxicity, neutrophil counts
Procedure: (§2) The 5-FU±HA was given by intravenous administration over one hour on a four week cycle. The initial dose of 5-FU in this study was 450 mg/m^2 daily for three days and the dose of HA 500 mg/m^2 with each administration of 5-FU. Dose escalation occurred in two steps to reach the standard dose of 450 mg/m^2 for five consecutive days with each cycle. Therefore, the initial dose level was 450 mg/r^2 daily for three days, the next 450 mg/m^2 for four days and the final 450 mg/m^2 daily for five days.

[2] = test system: neutrophils; test: Phase I clinical trial of doxorubicin + HA (HyDox) in advanced cancer: toxicity, neutrophil counts; assay type: in vivo, patients; details: HA 500 mg/m^2 with Dox 30-60 mg/m^2, three week cycle
Source text: The eligibility criteria, for inclusion in this study, were as follows: Patients must have advanced or metastatic cancer, histologically or cytologically confirmed. Patients were not to have had previous chemotherapy or were to have had no more than one prior chemotherapy regime and were not to have had prior anthracyclines. Patients were to be aged between 18 and 75 years with ambulatory performance status and adequate bone marrow, liver and renal function.
The treatment plan provided that, in the first chemotherapy cycle, patients be randomized to receive Dox alone or Dox plus HA. The converse applied in the second cycle. In the subsequent four cycles, patients received Dox plus HA. This allowed each patient to act as his/her own control in the toxicity analysis in the first two cycles, reducing the possibility of inter-patient variability affecting result interpretation.
Injectable sodium chloride was obtained from Baxter Healthcare, Sydney, Australia, as supplied as a 500 ml infusion bag.
Therefore, the initial dose level was 30 mg/m^2, the next 45 mg/m^2 and the next 60 mg/m^2.

[3] = test system: blood cell sub-populations; test: In vivo cytotoxicity (III), CMF±HA: bone marrow suppression (blood cell counts); design: species or system Athymic CBA/WEHI nude female mice
Procedure: At the experimental end-point, when animals had to be euthanased due to degree of disease progression or when the 6-week treatment regimen was completed, the animals were anesthetized by a 0.1 ml intra-peritoneal injection of Nembutal (60 mg/ml), blood was collected, and the animals killed using cervical dislocation.
Erythrocyte, platelet and white blood cell numbers were estimated by making a 1/50- 1/2000 dilution of blood in mouse tenacity saline and counting on a hemocytometer. A blood smear was made and stained with Giemsa, thereby enabling a relative percentage quantification of neutrophils, lymphocytes, and […]. The total estimation of blood cell sub-populations was compared with published data for mouse blood.

[4] = In vivo cytotoxicity (III), CMF±HA: effect of treatment on organ mass; design: species or system Athymic CBA/WEHI nude female mice; details: mouse
Source text: (§1) Immediately after killing the mouse, the tumor, liver, heart, spleen, bladder, left and right kidneys, uterus, lungs, stomach, intestines, brain and lymph nodes were excised and weighed, and placed in 10% v/v formalin. The tissue was fixed for 16-24 hrs before histological processing. Fixed tissue was dehydrated stepwise to 100% v/v ethanol and embedded in paraffin blocks from which 2-4 μm sections were placed on glass microscope slides. Staining the tissue sections with a hematoxylin nuclear stain and eosin cytoplasmic stain highlighted any pathological features that could indicate treatment toxicity.
The mass of each organ was calculated as a percentage of the overall net bodyweight, and compared to the organ masses of the saline only group.

[5] = In vivo cytotoxicity (III), CMF±HA: organ pathology (lungs, liver); design: species or system Athymic CBA/WEHI nude female mice
Source text: as §1

[6] = assay type: in vivo; details: 6-week regimen
Procedure: The overall survival time was calculated as the time (days or weeks) that the animal lived, after the commencement of treatment.

[7] = test system: neutrophils; details: human, in vivo
Procedure: as §2

[8] = Patient 2, cycle Day 3, 5FU Cycle 1, HyFive Cycle 2
[9] = Patient 2, cycle Day 7, 5FU Cycle 1, HyFive Cycle 2
[10] = Patient 2, cycle Day 9, 5FU Cycle 1, HyFive Cycle 2
[11] = Patient 2, cycle Day 11, 5FU Cycle 1, HyFive Cycle 2
[12] = Patient 2, cycle Day 14, 5FU Cycle 1, HyFive Cycle 2
[13] = Patient 2, cycle Day 16, 5FU Cycle 1, HyFive Cycle 2
[14] = Patient 2, cycle Day 18, 5FU Cycle 1, HyFive Cycle 2
[15] = Patient 2, cycle Day 21, 5FU Cycle 1, HyFive Cycle 2
[16] = Patient 2, cycle Day 23, 5FU Cycle 1, HyFive Cycle 2
[17] = Patient 2, cycle Day 25, 5FU Cycle 1, HyFive Cycle 2
[18] = Patient 4, cycle Day 4, HyFive Cycle 1, 5FU Cycle 2
[19] = Patient 4, cycle Day 5, HyFive Cycle 1, 5FU Cycle 2
[20] = Patient 4, cycle Day 8, HyFive Cycle 1, 5FU Cycle 2
[21] = Patient 4, cycle Day 10, HyFive Cycle 1, 5FU Cycle 2
[22] = Patient 4, cycle Day 12, HyFive Cycle 1, 5FU Cycle 2
[23] = Patient 4, cycle Day 15, HyFive Cycle 1, 5FU Cycle 2
[24] = Patient 4, cycle Day 17, HyFive Cycle 1, 5FU Cycle 2
[25] = Patient 4, cycle Day 19, HyFive Cycle 1, 5FU Cycle 2
[26] = Patient 4, cycle Day 22, HyFive Cycle 1, 5FU Cycle 2
[27] = Patient 4, cycle Day 24, HyFive Cycle 1, 5FU Cycle 2
[28] = Patient 4, cycle Day 26, HyFive Cycle 1, 5FU Cycle 2
[29] = Patient 5, cycle Day 5, 5FU Cycle 1, HyFive Cycle 2
[30] = Patient 5, cycle Day 10, 5FU Cycle 1, HyFive Cycle 2
[31] = Patient 5, cycle Day 12, 5FU Cycle 1, HyFive Cycle 2
[32] = Patient 5, cycle Day 15, 5FU Cycle 1, HyFive Cycle 2
[33] = Patient 5, cycle Day 17, 5FU Cycle 1, HyFive Cycle 2
[34] = Patient 5, cycle Day 19, 5FU Cycle 1, HyFive Cycle 2
[35] = Patient 5, cycle Day 22, 5FU Cycle 1, HyFive Cycle 2
[36] = Patient 5, cycle Day 24, 5FU Cycle 1, HyFive Cycle 2
[37] = Patient 5, cycle Day 26, 5FU Cycle 1, HyFive Cycle 2
[38] = Patient 6, cycle Day 3, 5FU Cycle 1, HyFive Cycle 2
[39] = Patient 6, cycle Day 8, 5FU Cycle 1, HyFive Cycle 2
[40] = Patient 6, cycle Day 10, 5FU Cycle 1, HyFive Cycle 2
[41] = Patient 6, cycle Day 12, 5FU Cycle 1, HyFive Cycle 2
[42] = Patient 6, cycle Day 15, 5FU Cycle 1, HyFive Cycle 2
[43] = Patient 6, cycle Day 17, 5FU Cycle 1, HyFive Cycle 2
[44] = Patient 6, cycle Day 19, 5FU Cycle 1, HyFive Cycle 2
[45] = Patient 6, cycle Day 22, 5FU Cycle 1, HyFive Cycle 2
[46] = Patient 6, cycle Day 24, 5FU Cycle 1, HyFive Cycle 2
[47] = Patient 6, cycle Day 26, 5FU Cycle 1, HyFive Cycle 2
[48] = Patient 7, cycle Day 3, HyFive Cycle 1, 5FU Cycle 2
[49] = Patient 7, cycle Day 5, HyFive Cycle 1, 5FU Cycle 2
[50] = Patient 7, cycle Day 8, HyFive Cycle 1, 5FU Cycle 2
[51] = Patient 7, cycle Day 10, HyFive Cycle 1, 5FU Cycle 2
[52] = Patient 7, cycle Day 15, HyFive Cycle 1, 5FU Cycle 2
[53] = Patient 7, cycle Day 17, HyFive Cycle 1, 5FU Cycle 2
[54] = Patient 7, cycle Day 19, HyFive Cycle 1, 5FU Cycle 2
[55] = Patient 7, cycle Day 22, HyFive Cycle 1, 5FU Cycle 2
[56] = Patient 7, cycle Day 24, HyFive Cycle 1, 5FU Cycle 2
[57] = Patient 7, cycle Day 26, HyFive Cycle 1, 5FU Cycle 2
[58] = HA days 1 and 3 (CMF, where given, days 2 and 4)

O=c1[nH]cc(F)c(=O)[nH]1 [5FU, 5-fluorouracil]
Neutrophil Count [1, 8]: 7.6 | Neutrophil Count as % Day 1 [1, 8]: 82% | Neutrophil Count [1, 9]: 8.4 | Neutrophil Count as % Day 1 [1, 9]: 90% | Neutrophil Count [1, 10]: 8.3 | Neutrophil Count as % Day 1 [1, 10]: 89% | Neutrophil Count [1, 11]: 6.8 | Neutrophil Count as % Day 1 [1, 11]: 73% | Neutrophil Count [1, 12]: 7 | Neutrophil Count as % Day 1 [1, 12]: 75% | Neutrophil Count [1, 13]: 7.3 | Neutrophil Count as % Day 1 [1, 13]: 78% | Neutrophil Count [1, 14]: 8.4 | Neutrophil Count as % Day 1 [1, 14]: 90% | Neutrophil Count [1, 15]: 8.2 | Neutrophil Count as % Day 1 [1, 15]: 88% | Neutrophil Count [1, 16]: 7.8 | Neutrophil Count as % Day 1 [1, 16]: 84% | Neutrophil Count [1, 17]: 8.7 | Neutrophil Count as % Day 1 [1, 17]: 94% | Neutrophil Count ([1]; Patient 2 L-F (Day 3 Tx), cycle Day 1, 5FU Cycle 1, HyFive Cycle 2): 9.3 | Neutrophil Count [1, 18]: 4.4 | Neutrophil Count as % Day 1 [1, 18]: 86% | Neutrophil Count [1, 19]: 4.4 | Neutrophil Count as % Day 1 [1, 19]: 86% | Neutrophil Count [1, 20]: 5 | Neutrophil Count as % Day 1 [1, 20]: 98% | Neutrophil Count [1, 21]: 10.3 | Neutrophil Count as % Day 1 [1, 21]: 202% | Neutrophil Count [1, 22]: 6.9 | Neutrophil Count as % Day 1 [1, 22]: 135% | Neutrophil Count [1, 23]: 6.7 | Neutrophil Count as % Day 1 [1, 23]: 131% | Neutrophil Count [1, 24]: 7.5 | Neutrophil Count as % Day 1 [1, 24]: 147% | Neutrophil Count [1, 25]: 6.5 | Neutrophil Count as % Day 1 [1, 25]: 127% | Neutrophil Count [1, 26]: 6.1 | Neutrophil Count as % Day 1 [1, 26]: 120% | Neutrophil Count [1, 27]: 7.9 | Neutrophil Count as % Day 1 [1, 27]: 155% | Neutrophil Count [1, 28]: 5.3 | Neutrophil Count as % Day 1 [1, 28]: 104% | Neutrophil Count ([1]; Patient 4 C-X (4 Day Tx), cycle Day 1, HyFive Cycle 1, 5FU Cycle 2): 5.1 | Neutrophil Count [1, 29]: 4.5 | Neutrophil Count as % Day 1 [1, 29]: 107% | Neutrophil Count [1, 30]: 4.1 | Neutrophil Count as % Day 1 [1, 30]: 98% | Neutrophil Count [1, 31]: 4.3 | Neutrophil Count as % Day 1 [1, 31]: 102% | Neutrophil Count [1, 32]: 3.7 | Neutrophil Count as % Day 1 [1, 32]: 88% | Neutrophil Count [1, 33]: 3.3 | Neutrophil Count as % Day 1 [1, 33]: 79% | Neutrophil Count [1, 34]: 4.3 | Neutrophil Count as % Day 1 [1, 34]: 102% | Neutrophil Count [1, 35]: 4.3 | Neutrophil Count as % Day 1 [1, 35]: 102% | Neutrophil Count [1, 36]: 4 | Neutrophil Count as % Day 1 [1, 36]: 95% | Neutrophil Count [1, 37]: 4.5 | Neutrophil Count as % Day 1 [1, 37]: 107% | Neutrophil Count ([1]; Patient 5 J-M (5 Day Tx), cycle Day 1, 5FU Cycle 1, HyFive Cycle 2): 4.2 | Neutrophil Count [1, 38]: 4.3 | Neutrophil Count as % Day 1 [1, 38]: 81% | Neutrophil Count [1, 39]: 4.5 | Neutrophil Count as % Day 1 [1, 39]: 85% | Neutrophil Count [1, 40]: 6.6 | Neutrophil Count as % Day 1 [1, 40]: 125% | Neutrophil Count [1, 41]: 4.5 | Neutrophil Count as % Day 1 [1, 41]: 85% | Neutrophil Count [1, 42]: 4.2 | Neutrophil Count as % Day 1 [1, 42]: 79% | Neutrophil Count [1, 43]: 5.5 | Neutrophil Count as % Day 1 [1, 43]: 104% | Neutrophil Count [1, 44]: 5.3 | Neutrophil Count as % Day 1 [1, 44]: 100% | Neutrophil Count [1, 45]: 5.7 | Neutrophil Count as % Day 1 [1, 45]: 108% | Neutrophil Count [1, 46]: 5.4 | Neutrophil Count as % Day 1 [1, 46]: 102% | Neutrophil Count [1, 47]: 5 | Neutrophil Count as % Day 1 [1, 47]: 94% | Neutrophil Count ([1]; Patient 6 J-B (5 Day Tx), cycle Day 1, 5FU Cycle 1, HyFive Cycle 2): 5.3 | Neutrophil Count [1, 48]: 2.3 | Neutrophil Count as % Day 1 [1, 48]: 77% | Neutrophil Count [1, 49]: 2.8 | Neutrophil Count as % Day 1 [1, 49]: 93% | Neutrophil Count [1, 50]: 3.2 | Neutrophil Count as % Day 1 [1, 50]: 107% | Neutrophil Count [1, 51]: 2.5 | Neutrophil Count as % Day 1 [1, 51]: 83% | Neutrophil Count [1, 52]: 2.7 | Neutrophil Count as % Day 1 [1, 52]: 90% | Neutrophil Count [1, 53]: 2.5 | Neutrophil Count as % Day 1 [1, 53]: 83% | Neutrophil Count [1, 54]: 3 | Neutrophil Count as % Day 1 [1, 54]: 100% | Neutrophil Count [1, 55]: 3.4 | Neutrophil Count as % Day 1 [1, 55]: 113% | Neutrophil Count [1, 56]: 3.1 | Neutrophil Count as % Day 1 [1, 56]: 103% | Neutrophil Count [1, 57]: 3.5 | Neutrophil Count as % Day 1 [1, 57]: 117% | Neutrophil Count ([1]; Patient 7 V-D (5 Day Tx), cycle Day 1, HyFive Cycle 1, 5FU Cycle 2): 3

hyaluronan [HA]
Effect on known toxicities of Dox in patients [2]: does not increase any of the known toxicities of Dox | Erthrocytes (Mean ± SD) [3, 58]: 8.78 ± 0.25 × 10^6/ul | Lymphocytes/Monocytes (Mean ± SD) [3, 58]: 47 ± 2% | Neutrophils/eosinophils/basophils (Mean ± SD) [3, 58]: 53 ± 2% | Platelets (Mean ± SD) [3, 58]: 1356 ± 41 × 10^3/ul | White Cells (Mean ± SD) [3, 58]: 6.15 ± 0.05 × 10^3/ul | Erthrocytes (Mean ± SD) ([3]; administered days 1 and 2): 8.99 ± 0.13 × 10^6/ul | Lymphocytes/Monocytes (Mean ± SD) ([3]; administered days 1 and 2): 47 ± 1% | Neutrophils/eosinophils/basophils (Mean ± SD) ([3]; administered days 1 and 2): 53 ± 1% | Platelets (Mean ± SD) ([3]; administered days 1 and 2): 1374 ± 7 × 10^3/ul | White Cells (Mean ± SD) ([3]; administered days 1 and 2): 6.15 ± 0.03 × 10^3/ul | Spleen mass compared to the untreated control [4]: significant enlargement of the spleen | Liver: % with areas of focal liver necrosis/inflammation ([5]; liver pathology): 25% with | Lungs: % with oedema and macrophage infiltrate ([5]; lung pathology): 12.5% with | Survival time mean ± SEM [6, 58]: 42 ± 0 days | Survival time mean ± SEM ([6]; administered days 1 and 2): 42 ± 0 days | Effect on known toxicities of 5-FU in patients [7]: does not increase any of the known toxicities of 5-FU
